Experimental data reported in US8486996B2, “Aroylfuranes and aroylthiophenes” (Basilea Pharmaceutica AG, priority 2006, dated 2013).
Where two headings read alike, the source gives them in different places.

Assays:
Type in all cases: cell-based
tumor cells [1] = assay: MTS proliferation assay (72 h read-out)
Method: B) MTS Proliferation Assay
The assay is performed in 96 well tissue culture plates. The cells (range: 1.5*10^3-10^4) are seeded out in 80 μl complete medium 24 h prior to compound treatment. The test compounds are added in 20 μl complete medium containing max 5% DMSO. The final compound concentrations in the assays are in the range of 0.001 μM-10 μM. The assay plates are incubated for 72 h at culture conditions. The MTS reagent is prepared according to the manufacturer's protocol (Promega G1111). 20 μl MTS reagent are added to each well; the assay plates are quickly spun and incubated for another 3 h at culture conditions. Subsequently, the plates are shortly shaked and absorption measured with a microplate-reader at 492 nm. The scores A, B, C and D are explained at the end of the Table.

tumor cells [2] = assay: Hoechst 33342 nuclear staining (48 h read-out)
Method: (§1) A) Hoechst 33342 Nuclear Staining
(§2) This assay is performed in 96 well tissue culture plates. Appropriate number of cells (adherent cells: 3-5*10^3, suspension cells: 8-10*10^3) are being seeded out in 80 μl complete medium. Adherent cells are incubated for 24 h for proper spreading out before addition of test compounds while suspension cells are immediately treated with test compounds after seeding out. The test compounds are added in 20 μl complete medium containing max 5% DMSO. The final compound concentrations in the assays are in the range of 0.001 μM-10 μM. After 24 h or 48 h incubation at culture conditions, 10 μl medium containing Hoechst 33342 dye (Sigma B-2261) at 2-5 μg/ml are added to each well. The assay plates are then further incubated for 30 minutes and subsequently analyzed with a standard inverted fluorescence microscope.
(§3) The readout allows the determination of the fraction of apoptotic nuclei as well as other morphological criteria specific for apoptosis as a function of the treatment. The scores A, B, C and D are explained at the end of the Table.

[3] = Hoechst 33342 nuclear staining (48 h read-out)
Method: as §1, §2, §3

tumor cells [4] = assay: Mitochondrial membrane potential, JC-1 (read-out 48 h); settings: JC-1, 48 h
Method: D) Mitochondrial Membrane Potential
as §2, with “The final compound concentrations in the assays are in the range of 0.001 μM-10 μM.” left out, “JC-1 (Molecular Probes, T-3168)” for “Hoechst 33342 dye (Sigma B-2261)”, “microscope by using the FITC and TRITC filters.” for “microscope.”
The readout allows the determination of the fraction of cells which show a dissipation of the mitochondrial membrane potential strongly indicating an apoptotic cell death as a function of the treatment. The scores A, B, C and D are explained at the end of the Table.

[5] = Homo sapiens, HT-1080, HT1080 cells, read-out: MTS proliferation assay IC50, HT1080
[6] = Homo sapiens, HeLa cells, read-out: MTS proliferation assay IC50, HeLa
[7] = Homo sapiens, Jurkat cells, read-out: MTS proliferation assay IC50, Jurkat
[8] = Jily cells, read-out: MTS proliferation assay IC50, Jily
[9] = Homo sapiens, HeLa cells, read-out: Hoechst 33342 nuclear staining EC50, HeLa
[10] = Homo sapiens, Jurkat cells, read-out: Hoechst 33342 nuclear staining EC50, Jurkat
[11] = Homo sapiens, MRC5 cells, read-out: Hoechst 33342 nuclear staining EC50, MRC5
[12] = Homo sapiens, HeLa cells, read-out: Mitochondrial membrane potential (read-out 48 h) HeLa
[13] = Homo sapiens, Jurkat cells, read-out: Mitochondrial membrane potential (read-out 48 h) Jurkat
[14] = Homo sapiens, MCF7 cells, read-out: Mitochondrial membrane potential (read-out 48 h) MCF7
[15] = Jily cells, read-out: Mitochondrial membrane potential (read-out 48 h) Jily
[16] = HT1080 cells, read-out: MTS proliferation assay IC50, HT1080
[17] = HeLa cells, read-out: MTS proliferation assay IC50, HeLa
[18] = Jurkat cells, read-out: MTS proliferation assay IC50, Jurkat
[19] = HeLa cells, read-out: Hoechst 33342 nuclear staining EC50, HeLa
[20] = Jurkat cells, read-out: Hoechst 33342 nuclear staining EC50, Jurkat
[21] = MRC5 cells, read-out: Hoechst 33342 nuclear staining EC50, MRC5
[22] = HeLa cells, read-out: Mitochondrial membrane potential (read-out 48 h) HeLa
[23] = Jurkat cells, read-out: Mitochondrial membrane potential (read-out 48 h) Jurkat
[24] = MCF7 cells, read-out: Mitochondrial membrane potential (read-out 48 h) MCF7

Structure (SMILES) | IC50 (tumor cells [1]; [8]) [nM] | EC50 (tumor cells [4]; [15]) [nM] | IC50 (tumor cells [1]; [16]) [nM] | IC50 (tumor cells [1]; [17]) [nM] | IC50 (tumor cells [1]; [18]) [nM] | EC50 (tumor cells [2]; [19]) [nM] | EC50 (tumor cells [2]; [20]) [nM] | EC50 (tumor cells [4]; [22]) [nM] | EC50 (tumor cells [4]; [23]) [nM] | EC50 (tumor cells [4]; [24]) [nM] | EC50 [3, 21] [nM] | further results
Nc1c(C(=O)c2ccccc2N2CCCCC2)sc2ncccc12 [Example 121] | > 1000 | > 1000 | > 1000 | > 1000 | > 1000 | > 1000 | > 1000 | > 1000 | > 1000 | > 1000 | > 1000 | 
Nc1c(C(=O)c2ccccc2N2CCOCC2)sc2ncccc12 [Example 122] | > 1000 | > 1000 | > 1000 | > 1000 | > 1000 | > 1000 | > 1000 | > 1000 | > 1000 | > 1000 | > 1000 | 
Nc1c(C(=O)c2ccccc2N2CC=CCC2)sc2ncccc12 [Example 123] | > 1000 | > 1000 | > 1000 | > 1000 | > 1000 | > 1000 | > 1000 | > 1000 | > 1000 | > 1000 | > 1000 | 
Nc1c(C(=O)c2cc(F)ccc2N2CCCCC2)sc2ncccc12 [Example 124] | > 1000 | > 1000 | > 1000 | > 1000 | > 1000 | > 1000 | > 1000 | > 1000 | > 1000 | > 1000 | > 1000 | 
CCCOc1ccc(F)cc1C(=O)c1sc2ncc([N+](=O)[O-])cc2c1N [Example 127] | > 1000 | > 1000 | > 1000 | > 1000 | > 1000 | > 1000 | > 1000 | > 1000 | > 1000 | > 1000 | > 1000 | 
Nc1c(C(=O)c2cc(F)ccc2N2CCOCC2)sc2ncc([N+](=O)[O-])cc12 [Example 129] | > 1000 | > 1000 | > 1000 | > 1000 | > 1000 | > 1000 | > 1000 | > 1000 | > 1000 | > 1000 | > 1000 | 
Nc1c(C(=O)c2ccccc2N2CCOCC2)sc2ncc([N+](=O)[O-])cc12 [Example 131] | > 1000 | > 1000 | > 1000 | > 1000 | > 1000 | > 1000 | > 1000 | > 1000 | > 1000 | > 1000 | > 1000 | 
Nc1cnc2sc(C(=O)c3ccccc3N3CCOCC3)c(N)c2c1 [Example 132] | 100 to 1000 | > 1000 | > 1000 | > 1000 | 100 to 1000 | > 1000 | 100 to 1000 | > 1000 | > 1000 | > 1000 | > 1000 | 

Further lines, with some results ahead:

IC50 (tumor cells [1]; [8]) [nM] | EC50 (tumor cells [4]; [15]) [nM] | IC50 (tumor cells [1]; [16]) [nM] | IC50 (tumor cells [1]; [17]) [nM] | IC50 (tumor cells [1]; [18]) [nM] | EC50 (tumor cells [2]; [19]) [nM] | EC50 (tumor cells [2]; [20]) [nM] | EC50 (tumor cells [4]; [22]) [nM] | EC50 (tumor cells [4]; [23]) [nM] | EC50 (tumor cells [4]; [24]) [nM] | Structure (SMILES) | EC50 [3, 21] [nM] | further results
10 to 100 | 10 to 100 |  |  |  |  |  |  |  |  | CCOc1ccc(F)cc1C(=O)c1sc2nc(C)c(C)cc2c1N [Example 118, 5,6-Dimethyl-3-amino-2-(2′-ethoxy-5′-fluorobenzoyl)-thieno[2,3-b]pyridine] |  | IC50 (tumor cells [1]; [5]): 10 to 100 nM; IC50 (tumor cells [1]; [6]): 10 to 100 nM; IC50 (tumor cells [1]; [7]): 10 to 100 nM; EC50 (tumor cells [2]; [9]): 10 to 100 nM; EC50 (tumor cells [2]; [10]): 10 to 100 nM; EC50 [3, 11]: 10 to 100 nM; EC50 (tumor cells [4]; [12]): 100 to 1000 nM; EC50 (tumor cells [4]; [13]): 10 to 100 nM; EC50 (tumor cells [4]; [14]): > 1000 nM
10 to 100 | 100 to 1000 |  |  |  |  |  |  |  |  | Cc1cc2c(N)c(C(=O)c3cc(F)ccc3N3CCOCC3)sc2nc1C [Example 119, 5,6-Dimethyl-3-amino-2-(2′-N-morpholino-5′-fluorobenzoyl)-thieno[2,3-b]pyridin] |  | IC50 (tumor cells [1]; [5]): 10 to 100 nM; IC50 (tumor cells [1]; [6]): 100 to 1000 nM; IC50 (tumor cells [1]; [7]): 10 to 100 nM; EC50 (tumor cells [2]; [9]): 100 to 1000 nM; EC50 (tumor cells [2]; [10]): 10 to 100 nM; EC50 [3, 11]: 10 to 100 nM; EC50 (tumor cells [4]; [12]): > 1000 nM; EC50 (tumor cells [4]; [13]): 100 to 1000 nM; EC50 (tumor cells [4]; [14]): > 1000 nM
100 to 1000 | 100 to 1000 |  |  |  |  |  |  |  |  | CCOc1ccc(F)cc1C(=O)c1sc2ncc(C#N)cc2c1N [Example 120, 5-Cyano-3-amino-2-(2′-ethoxy-5′-fluorobenzoyl)-thieno[2,3-b]pyridine] |  | IC50 (tumor cells [1]; [5]): 100 to 1000 nM; IC50 (tumor cells [1]; [6]): 100 to 1000 nM; IC50 (tumor cells [1]; [7]): 100 to 1000 nM; EC50 (tumor cells [2]; [9]): > 1000 nM; EC50 (tumor cells [2]; [10]): 100 to 1000 nM; EC50 [3, 11]: 100 to 1000 nM; EC50 (tumor cells [4]; [12]): > 1000 nM; EC50 (tumor cells [4]; [13]): 100 to 1000 nM; EC50 (tumor cells [4]; [14]): > 1000 nM
100 to 1000 | 100 to 1000 | > 1000 | > 1000 | 100 to 1000 | > 1000 | > 1000 | > 1000 | 100 to 1000 | > 1000 | Nc1c(C(=O)c2cc(F)ccc2N2CCOCC2)sc2ncccc12 [Example 125] | > 1000 | 
100 to 1000 | 100 to 1000 | 100 to 1000 | > 1000 | 100 to 1000 | > 1000 | > 1000 | > 1000 | 100 to 1000 | > 1000 | Nc1c(C(=O)c2cc(F)ccc2N2CC=CCC2)sc2ncccc12 [Example 126] | > 1000 | 
100 to 1000 | > 1000 | 100 to 1000 | > 1000 | 100 to 1000 | 100 to 1000 | 100 to 1000 | > 1000 | 100 to 1000 | > 1000 | CCCOc1ccc(F)cc1C(=O)c1sc2ncc(N)cc2c1N [Example 128] | 100 to 1000 | EC50 ([3]; PBL, read-out: Hoechst 33342 nuclear staining EC50, PBL): > 1000 nM
10 to 100 | 100 to 1000 | 100 to 1000 | 100 to 1000 | 10 to 100 | 100 to 1000 | 100 to 1000 | 100 to 1000 | 100 to 1000 | > 1000 | Nc1cnc2sc(C(=O)c3cc(F)ccc3N3CCOCC3)c(N)c2c1 [Example 130] | 100 to 1000 | 
10 to 100 | 10 to 100 | 10 to 100 | 10 to 100 | 10 to 100 | 10 to 100 | 10 to 100 | 10 to 100 | 10 to 100 | > 1000 | CCCOc1ccccc1C(=O)c1sc2nc(C)c(C)cc2c1N [Example 133] | 10 to 100 | 
10 to 100 | 10 to 100 | 10 to 100 | 100 to 1000 | 10 to 100 | 100 to 1000 | 10 to 100 | 10 to 100 | 10 to 100 | > 1000 | Cc1cc2c(N)c(C(=O)c3ccccc3N3CCOCC3)sc2nc1C [Example 134] | 100 to 1000 | 
10 to 100 | 10 to 100 | 10 to 100 | 100 to 1000 | 10 to 100 | 100 to 1000 | 10 to 100 | > 1000 | 10 to 100 | > 1000 | Cc1cc2c(N)c(C(=O)c3ccccc3N3CC=CCC3)sc2nc1C [Example 135] | 100 to 1000 | 
